Among the data in BindingDB's records for doi:10.1021/np0604580 (University of California - San Diego, 2007) are IC50 values, retold here.

For this experiment, the target named is T1, Ornithine decarboxylase (Homo sapiens, UniProt P11926).
T1 sequence (P11926 whole entry): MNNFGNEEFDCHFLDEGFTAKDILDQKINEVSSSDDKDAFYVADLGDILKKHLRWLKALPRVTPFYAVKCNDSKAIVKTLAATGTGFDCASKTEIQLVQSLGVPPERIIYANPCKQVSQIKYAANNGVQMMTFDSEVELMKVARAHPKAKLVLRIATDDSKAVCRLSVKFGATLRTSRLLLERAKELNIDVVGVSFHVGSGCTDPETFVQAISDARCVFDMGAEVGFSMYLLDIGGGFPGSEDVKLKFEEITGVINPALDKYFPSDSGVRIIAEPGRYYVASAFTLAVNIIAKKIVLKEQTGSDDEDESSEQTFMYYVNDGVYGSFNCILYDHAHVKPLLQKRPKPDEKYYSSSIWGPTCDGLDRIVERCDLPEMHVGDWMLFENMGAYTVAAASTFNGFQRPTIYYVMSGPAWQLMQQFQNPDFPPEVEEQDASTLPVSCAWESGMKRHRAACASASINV
The experiment in a line: Inhibition of TPA-induced ornithine decarboxylase expressed in T24 cells.

Broadly, the IC50 is the concentration that inhibits the measured activity by half. A low value points to greater potency in that assay.

The compound `C/C(=C/C=C/[C@H](C)[C@H](O)[C@@H](C)[C@@H](O)[C@@H](C)[C@@H]1O[C@@]2(C)CC[C@@H](O2)[C@H]1C)C(N)=O` [SALINIKETAL A] had an IC50 of 5.05 µM. Take `C[C@H]([C@H](O)[C@H](C)[C@@H](O)[C@@H](C)/C=C/C=C(/CO)C(N)=O)[C@@H]1O[C@@]2(C)CC[C@@H](O2)[C@H]1C` [SALINIKETAL B]: the half-inhibitory concentration (IC50) was 18.9 µM.
